Assay results: US8158589B2, “Peptides with the capacity to bind to transforming growth factor β1 (TGF-β1)” (Proyecto Biomedicine Cima, S.L., priority 2003, dated 2012)
Ends that are not written are not given here.

Legend:
TGF-β1 [1] = target: T1, TGF-β1 (Homo sapiens, UniProt P01137); assay: Western Blot of p-Smad2, Smad2/3 and Smad7 in primary culture of rabbit corneal fibroblasts; assay type: cell-based; design: host or cells: added to a primary culture of rabbit corneal fibroblasts
Description: (§1) Therefore, Western Blot and immunofluorescence studies were conducted to determine, from cells extracted from the in vivo studies, the signaling pathway used by the peptides administered topically. It should be emphasized that said studies were conducted on fibroblasts from rabbit cornea and not from rat cornea. This decision was made due to the difficulty entailed in isolating fibroblasts from rodent eyes.
Since the scientific literature repeatedly describes the TGF-β1 signaling pathways, the decision was made to go into depth in such pathways by means of the techniques described in the methodology section. Said pathways involve the study of the Smad protein family, specifically the study of the isoforms Smad2, 2/3 and 7.
To that end, protein extracts obtained from the primary culture of rabbit fibroblasts were treated with TGF-β1 at concentrations of 0, 3 and 5 ng/ml and, 50 and 200 μg/ml of peptide p17 and p144.

TGF-β1 [2] = target: T2, TGF-β1 (Mus musculus, UniProt P04202); assay: Model of acute liver damage induced by CCl4, type I collagen mRNA by real time PCR; assay type: in vivo, mice
T2 construct: from tissue; host or cells: liver of Balb/C mice (CCl4 model); lung of C57BL/6 mice (bleomycin model)
Description: Acute liver damage generates a cascade of effects and physiological responses, including elevations in the concentrations of TGF-β1. This elevation is responsible for the expression of the type I collagen gene, among others. In this model of acute liver damage, female Balb/C mice weighing 25 to 30 g, were orally administered a dose of 2 μl of CCl4 (per gram of body weight) dissolved in an equivalent volume of corn oil (volumetric ratio of 1:1). The control group received an equivalent volume of corn oil only, and the treated groups received (following the single oral administration of CCl4 in corn oil) 50 μg of peptide in 500 μl of 1% physiological saline solution in DMSO (dimethyl sulfoxide) every 24 h. After 72 hours all animals were sacrificed, and the liver samples were processed. To evaluate mRNA expression, liver tissue was frozen in liquid nitrogen and stored at −80° C. until further use. Other liver tissue samples were stored in OCT® or Tissue-Tek® (Sakura Finetek B.V.) and processed in the same way as the samples used for mRNA studies. Other liver samples were fixed in 10% buffered formalin solution, embedded in paraffin and processed for their histological evaluation. The amount of mRNA encoding type I collagen was quantified in all groups using a quantitative polymerase chain reaction (PCR) technique. […] The capacity of the testing peptides to block the acute damage, as assessed by measuring the levels of induced type I collagen mRNA was quantified by real time PCR. […] The peptides tested were obtained by conventional solid peptide synthesis procedures (Merrifield R B. J Am Chem Soc 1963; 85:2149-2154; Atherton E et al. J Chem Soc Perkin Trans 1981; 1:538-546).

TGF-β1 [3] = target: T1, TGF-β1; assay: Immunofluorescence of p-Smad2 translocation to the nucleus in rabbit corneal fibroblasts; assay type: cell-based; design: host or cells: added to a primary culture of rabbit corneal fibroblasts; conditions: TGF-β1 treated rabbit corneal fibroblasts
Description: as §1

TGF-β1 [4] = target: T3, TGF-β1 (Rattus norvegicus, UniProt P17246); assay: Corneal fibrosis and haze after 1 N NaOH damage, topical eye drops, photographs analysed with ImageJ; assay type: in vivo, Long-Evans rats; conditions: fifth formulation eye drops, treated right eye vs control left eye
T3 construct: from tissue; host or cells: cornea of Long-Evans rats
From the text: Male Long-Evans rats aged 10 weeks were used, divided into 5 groups: • Group 1: 12 rats, 6 treated with dexamethasone and 6 treated with mitomycin C • Group 2: 12 rats, 6 treated with p17 of the first formulation (see section 6.1.2.b) and 6 treated with p144 of the first formulation (see section 6.1.2.b) • Group 3: 12 rats, 6 treated with p17 of the second formulation (see section 6.1.2.b) and 6 treated with p144 of the second formulation (see section 6.1.2.b) • Group 4: 12 rats, 6 treated with p17 of the third formulation (see section 6.1.2.b) and 6 treated with p144 of the third formulation (see section 6.1.2.b) • Group 5: 12 rats, 6 treated with p17 of the fourth formulation (see section 6.1.2.b) and 6 treated with p144 of the fourth formulation (see section 6.1.2.b) • Group 6: 12 rats, 6 treated with p17 of the fifth formulation (see section 6.1.2.b) and 6 treated with p144 of the fifth formulation (see section 6.1.2.b)
To perform the damage in the cornea, the animals were anesthetized with isoflurane and a 5 mm Whatman paper disc impregnated in 1 N NaOH for 30 seconds was applied to them in the central part of the eye. After the damage, they were washed with abundant physiological saline serum and an antibiotic ointment was applied to them to prevent possible infections in the affected area.
After conducting several in vivo studies with the previously described groups of animals, it could be concluded that the chemical damage occurring after the application of NaOH for 30 seconds caused an excessive lesion for the study which was to be conducted, therefore it was decided to conduct new experiments reducing the time to 15 seconds.
It was randomly established that the left eye of each animal would act as a control and that the right eye would be the treated eye, such that the same animals acts as a control in addition to being treated. It must be pointed out that all the animals received antibiotic treatment in both eyes daily only during the first week of the study for the purposes of avoiding microbial keratitis.
Starting from 0.15% sodium hyaluronate (Hyabak 10 mL, Thea) without preservatives: • p144: 20 mg were dissolved in 5 ml of eye drops, 40 μl of saturated concentrated NaOH were incorporated, stirring and adding in portions of 5 μl. It was sonicated until solubilization. To adjust the pH, 500 μl of 1M Hepes were added, such that the pH changed from 10.5 to 7 • p144 control: 40 μl of saturated NaOH and 500 μl of 1 M HEPES (final concentration of HEPES 50 mM) • p17: 20 mg were dissolved in 5 ml of the eye drops, it was sonicated until complete solubilization and it was incorporated to the vial with a 10 ml syringe and a blue needle to perforate the filter of the contained (final concentration 2 mg/ml) • p17 control: non-manipulated eye drops • Note: The formulations were maintained at 4° C. throughout the study.
The administration of the treatment was initiated twenty-four hours after the damage. After that time a follow-up of the damage was performed, which consisted of taking photographs at days 0, 7, 14, 21, 28 and 35. To take the photographs the animals were anesthetized with isoflurane. Photographs were taken of both the control eye (left) and of the treated eye (right) with and without fluorescein. The photographs with fluorescein allowed to observe the evolution of the epithelial closure of the generated lesion, whereas the photographs without fluorescein show the evolution of the haze of the lesioned area. […]

[5] = primary culture, TGF-β1 and peptide

T1 sequence (P01137 279-390 limits assumed, species assumed): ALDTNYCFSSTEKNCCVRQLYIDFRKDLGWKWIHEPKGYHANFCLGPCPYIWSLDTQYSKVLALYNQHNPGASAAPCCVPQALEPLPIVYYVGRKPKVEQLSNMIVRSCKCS
T2 sequence (P04202 279-390 limits assumed): as the sequence (P01137 279-390 limits assumed, species assumed) above, with A75S counted along it
T3 sequence (P17246 279-390 limits assumed): as the sequence (P01137 279-390 limits assumed, species assumed) above, with A75S counted along it

- expression of p-Smad2 (TGF-β1 [1]; peptide 50 μg/ml): slight inhibition
- expression of p-Smad2 (TGF-β1 [1]; peptide 200 μg/ml): reaching the values of the controls
- expression of Smad 2/3 (TGF-β1 [1]; [5]): not affected
- expression of Smad 7 (TGF-β1 [1]; [5]): not modified
- translocation of p-Smad2 to the nucleus (TGF-β1 [3]): inhibited
Sequence: TSLDASIIWAMMQN [P144]
- % Inhibition of type I collagen mRNA induction (in vivo TGF-β1 biological activity) (TGF-β1 [2]; Balb/C mice, oral CCl4, 50 μg of peptide every 24 h, sacrifice after 72 hours): −3.51 ± 36%
- inhibition of the biological activity of TGF-β1 in vivo (in words) (TGF-β1 [2]; acute liver damage, type I collagen mRNA): does not show any activity
- corneal haze (TGF-β1 [4]): clear decrease
- epithelial closure (fluorescein) (TGF-β1 [4]): clear decrease
